Experimental data taken from patent publication US9796733B2, “Imidazo-pyrazine derivatives useful as soluble guanylate cyclase activators” (Merck Sharp & Dohme Corp., priority 2014, dated 2017).

How the values were obtained:
[1] = system: Spontaneously hypertensive rats (SHR); assay: Acute efficacy in spontaneously hypertensive rats (SHR): telemetry blood pressure lowering after a single oral dose; type: in vivo, rat
Description: Acute Efficacy in Spontaneously Hypertensive Rats (SHR)
Spontaneously hypertensive rats (SHR, male, Charles River) were implanted with DSI TA11PA-C40 telemetry device (Data Sciences, Inc., St. Paul, Minn.) under isoflurane or ketamine/metomidine anesthesia. The telemetry unit catheter was inserted into the descending aorta via the femoral artery and the telemetry device was implanted subcutaneously in the left flank area. Animals were allowed to recover from surgery for 14 days before the start of any studies. Blood pressure, heart rate, and activity signals from conscious, freely moving rats were recorded continuously for 30 seconds every 10 minutes. On the day prior to administration of compound, a single oral dose of vehicle (10% transcutol/20% Cremophor/70% water) was administered to all animals to establish baseline control data. The blood pressure lowering efficacy of compound (PO) or vehicle was evaluated following a single oral gavage. Data were collected as hourly averages, and changes in blood pressure were calculated by subtracting control baseline data on an hourly basis. Animals were maintained on normal diet with a 12 hour light-dark cycle.
Maximum peak decreases of systolic blood pressure (SBP) in SHR at a particular P.O. dose (mpk milligrams per kilogram) for the following representative compounds are provided. Category A=SBP in SHRs<20 mmHg; Category B=SBP in SHRs 20-40 mmHg; Category C=SBP in SHRs>40 mmHg

sGC α1/β1 heterodimer = biological target: T1, sGC α1/β1 heterodimer (Homo sapiens, UniProt Q02108+Q02153); assay: Cell-based sGC functional assay (CASA assay): cGMP generation in CHO-K1/sGC cells, HTRF detection; settings: for Emax: CHO-K1, percent activation relative to standard Compound A in CHO-K1/sGC cells, read-out: % Act.; for EC50: inflection point (IP) of cGMP generation in CHO-K1/sGC cells, 4P fit, activity expressed as percentage of Compound A; for % Act.: percent activation relative to standard Compound A in CHO-K1/sGC cells
T1 construct: expressed in transfected cells; host or cells: CHO-K1 (clone #7, CHO-K1/sGC)
T1 sequence (Q02108 1-690): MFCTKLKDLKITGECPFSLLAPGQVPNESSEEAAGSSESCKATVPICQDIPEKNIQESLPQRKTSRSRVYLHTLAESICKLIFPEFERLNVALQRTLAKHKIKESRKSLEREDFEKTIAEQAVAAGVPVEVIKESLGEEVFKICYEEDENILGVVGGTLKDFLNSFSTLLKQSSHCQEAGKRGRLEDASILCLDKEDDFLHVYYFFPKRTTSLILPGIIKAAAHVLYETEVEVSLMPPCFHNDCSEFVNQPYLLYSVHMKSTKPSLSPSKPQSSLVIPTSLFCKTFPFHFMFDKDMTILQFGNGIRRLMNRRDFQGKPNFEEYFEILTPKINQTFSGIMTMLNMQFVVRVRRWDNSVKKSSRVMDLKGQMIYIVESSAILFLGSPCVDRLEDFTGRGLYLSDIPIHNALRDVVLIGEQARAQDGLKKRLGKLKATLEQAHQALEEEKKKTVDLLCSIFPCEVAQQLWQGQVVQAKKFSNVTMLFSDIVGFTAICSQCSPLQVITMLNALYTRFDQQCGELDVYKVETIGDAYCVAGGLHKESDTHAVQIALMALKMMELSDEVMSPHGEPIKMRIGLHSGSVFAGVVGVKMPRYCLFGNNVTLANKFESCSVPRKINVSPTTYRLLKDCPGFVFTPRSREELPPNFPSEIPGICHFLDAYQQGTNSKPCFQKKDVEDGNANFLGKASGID
T1 sequence (Q02153 1-619): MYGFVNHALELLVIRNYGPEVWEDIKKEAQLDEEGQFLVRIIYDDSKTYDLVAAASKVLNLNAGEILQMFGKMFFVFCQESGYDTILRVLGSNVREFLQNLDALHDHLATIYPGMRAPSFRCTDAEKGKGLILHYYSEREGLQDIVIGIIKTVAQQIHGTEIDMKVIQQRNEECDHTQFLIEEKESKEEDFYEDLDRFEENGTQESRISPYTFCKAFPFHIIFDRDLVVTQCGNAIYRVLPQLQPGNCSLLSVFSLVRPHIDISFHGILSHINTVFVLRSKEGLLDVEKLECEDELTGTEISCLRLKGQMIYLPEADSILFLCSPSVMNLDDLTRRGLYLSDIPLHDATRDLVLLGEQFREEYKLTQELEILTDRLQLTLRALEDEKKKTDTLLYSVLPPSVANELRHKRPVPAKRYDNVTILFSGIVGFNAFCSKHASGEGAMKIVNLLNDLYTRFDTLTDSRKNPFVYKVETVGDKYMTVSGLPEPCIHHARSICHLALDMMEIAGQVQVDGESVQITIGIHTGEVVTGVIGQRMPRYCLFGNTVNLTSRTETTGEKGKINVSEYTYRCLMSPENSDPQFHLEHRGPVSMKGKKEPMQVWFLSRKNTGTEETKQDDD
Procedure, shortened: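 cGMP was quantified by HTRF after 1 hr, 37° C exposure of thawed CHO-K1 cells expressing sGC α1/β1 to compound, with or without 1 μM DETA-NO. IBMX (0.5 mM) blocked cGMP breakdown, and DMSO was 2.5% final. Percent of standard Compound A's maximal cGMP was fitted (4P) for inflection point.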

| Emax (sGC α1/β1 heterodimer) [%] | EC50 (sGC α1/β1 heterodimer) [nM] | % Act. (sGC α1/β1 heterodimer) [%] | SMILES | Maximum peak decrease of systolic blood pressure (SBP) in SHR, Cat. ([1]; P.O. 1.0 mpk) | Maximum peak decrease of systolic blood pressure (SBP) in SHR, Cat. ([1]; P.O. 3.0 mpk) | Maximum peak decrease of systolic blood pressure (SBP) in SHR, Cat. ([1]; P.O. 0.3 mpk) | Maximum peak decrease of systolic blood pressure (SBP) in SHR, Cat. ([1]; P.O. 2.0 mpk) |
| --- | --- | --- | --- | --- | --- | --- | --- |
| 124 | 894 |  | CCc1nc(-c2nc(N)c3c(n2)NC(=O)C3(C)c2ccc(Cl)cc2)cn2ccnc12 (single isomer, unassigned) [Example 1A, 4-Amino-5-(4-chlorophenyl)-2-(8-ethylimidazo[1,2-a]pyrazin-6-yl)-5-methyl-5H-pyrrolo[2,3-d]pyrimidin-6(7H)-one] | B (Category B=SBP in SHRs 20-40 mmHg) |  |  |  |
| 74 | 105 |  | CCCc1nc(-c2nc(N)c3c(n2)NC(=O)C3(C)c2ccc(Cl)cc2)cn2ccnc12 (single isomer, unassigned) [Example 2A, 4-Amino-5-(4-chlorophenyl)-5-methyl-2-(8-propylimidazo[1,2-a]pyrazin-6-yl)-5H-pyrrolo[2,3-d]pyrimidin-6(7H)-one] | C (Category C=SBP in SHRs>40 mmHg) |  |  |  |
| 122 | 32 |  | CC1(c2ccc(F)cc2)C(=O)Nc2nc(-c3cn4ccnc4c(Cc4cccc(F)c4)n3)nc(N)c21 (single isomer, unassigned) [Example 90A, 4-amino-2-(8-(3-fluorobenzyl)imidazo[1,2-a]pyrazin-6-yl)-5-(4-fluorophenyl)-5-methyl-5H-pyrrolo[2,3-d]pyrimidin-6(7H)-one] |  |  | C (Category C=SBP in SHRs>40 mmHg) |  |
| 157 | 1310 |  | Nc1nc(-c2cn3ccnc3c(CCC(F)(F)F)n2)nc2c1C(c1ccc(Cl)cn1)(C1CC1)C(=O)N2 (single isomer, unassigned) [Example 331B, 4-amino-5-(5-chloropyridin-2-yl)-5-cyclopropyl-2-(8-(3,3,3-trifluoropropyl)imidazo[1,2-a]pyrazin-6-yl)-5H-pyrrolo[2,3-d]pyrimidin-6(7H)-one] |  | B (Category B=SBP in SHRs 20-40 mmHg) |  |  |
| 177 | 695 |  | Cc1cnc(C2(C3CC3)C(=O)Nc3nc(-c4cn5ccnc5c(CCC(F)(F)C(F)(F)F)n4)nc(N)c32)cn1 (single isomer, unassigned) [Example 342B, 4-amino-5-cyclopropyl-5-(5-methylpyrazin-2-yl)-2-(8-(3,3,4,4,4-pentafluorobutyl)imidazo[1,2-a]pyrazin-6-yl)-5H-pyrrolo[2,3-d]pyrimidin-6(7H)-one] | A (Category A=SBP in SHRs<20 mmHg) |  |  |  |
| 163 | 51 |  | Nc1nc(-c2cn3ccnc3c(CCC(F)(F)C(F)(F)F)n2)nc2c1C(c1ccc(F)cc1)(C1CCC1)C(=O)N2 (single isomer, unassigned) [Example 344B, 4-amino-5-cyclobutyl-5-(4-fluorophenyl)-2-(8-(3,3,4,4,4-pentafluorobutyl)imidazo[1,2-a]pyrazin-6-yl)-5H-pyrrolo[2,3-d]pyrimidin-6(7H)-one] |  |  | A (Category A=SBP in SHRs<20 mmHg) |  |

The next lines start with the compound.

| SMILES | Emax (sGC α1/β1 heterodimer) [%] | EC50 (sGC α1/β1 heterodimer) [nM] | % Act. (sGC α1/β1 heterodimer) [%] | Maximum peak decrease of systolic blood pressure (SBP) in SHR, Cat. ([1]; P.O. 1.0 mpk) | Maximum peak decrease of systolic blood pressure (SBP) in SHR, Cat. ([1]; P.O. 3.0 mpk) | Maximum peak decrease of systolic blood pressure (SBP) in SHR, Cat. ([1]; P.O. 0.3 mpk) | Maximum peak decrease of systolic blood pressure (SBP) in SHR, Cat. ([1]; P.O. 2.0 mpk) |
| --- | --- | --- | --- | --- | --- | --- | --- |
| Cc1nnc(C2(C)C(=O)Nc3nc(-c4cn5ccnc5c(Cc5ccc(F)cc5)n4)nc(N)c32)o1 (single isomer, unassigned) [Example 29A, 4-Amino-2-(8-(4-fluorobenzyl)imidazo[1,2-a]pyrazin-6-yl)-5-methyl-5-(5-methyl-1,3,4-oxadiazol-2-yl)-5H-pyrrolo[2,3-d]pyrimidin-6(7H)-one] | 102 | 299 |  |  | B (Category B=SBP in SHRs 20-40 mmHg) |  |  |
| CCc1nnc(C2(C3CC3)C(=O)Nc3nc(-c4cn5ccnc5c(CCC(F)(F)C(F)(F)F)n4)nc(N)c32)s1 (single isomer, unassigned) [Example 30A, 4-Amino-5-cyclopropyl-5-(5-ethyl-1,3,4-thiadiazol-2-yl)-2-(8-(3,3,4,4,4-pentafluorobutyl)imidazo[1,2-a]pyrazin-6-yl)-5H-pyrrolo[2,3-d]pyrimidin-6(7H)-one] | 113 | 358 |  |  | C (Category C=SBP in SHRs>40 mmHg) |  |  |
| Nc1nc(-c2cn3ccnc3c(Cc3cccc(F)c3)n2)nc2c1C(C(=O)NC1CC1)(C1CC1)C(=O)N2 (single isomer, unassigned) [Example 38B, 4-amino-N,5-dicyclopropyl-2-(8-(3-fluorobenzyl)imidazo[1,2-a]pyrazin-6-yl)-6-oxo-6,7-dihydro-5H-pyrrolo[2,3-d]pyrimidine-5-carboxamide] |  | 7 | 103 |  |  | B (Category B=SBP in SHRs 20-40 mmHg) |  |
| Nc1nc(-c2cn3ccnc3c(CCC(F)(F)C(F)(F)F)n2)nc2c1C(C(=O)NC1CC1)(C1CC1)C(=O)N2 (single isomer, unassigned) [Example 61A, 4-amino-N,5-dicyclopropyl-6-oxo-2-(8-(3,3,4,4,4-pentafluorobutyl)imidazo[1,2-a]pyrazin-6-yl)-6,7-dihydro-5H-pyrrolo[2,3-d]pyrimidine-5-carboxamide] | 95 | 424 |  |  | B (Category B=SBP in SHRs 20-40 mmHg) |  |  |
| CC1(c2ccc(F)cc2)C(=O)Nc2nc(-c3cn4ccnc4c(CCC(F)(F)C(F)(F)F)n3)nc(N)c21 (single isomer, unassigned) [Example 68A, 4-Amino-5-(4-fluorophenyl)-5-methyl-2-(8-(3,3,4,4,4-pentafluorobutyl)imidazo[1,2-a]pyrazin-6-yl)-5H-pyrrolo[2,3-d]pyrimidin-6(7H)-one] |  | 37 | 112 |  |  | C (Category C=SBP in SHRs>40 mmHg) |  |
| CC1(c2ccc(F)cc2)C(=O)Nc2nc(-c3cn4ccnc4c(CCC(F)(F)C(F)(F)F)n3)nc(N)c21 (single isomer, unassigned) [Example 222B, 4-amino-5-(4-fluorophenyl)-5-methyl-2-(8-(3,3,4,4,4-pentafluorobutyl)imidazo [1,2-a]pyrazin-6-yl)-5H-pyrrolo[2,3-d]pyrimidin-6(7H)-one] | 121 | 578 |  |  | B (Category B=SBP in SHRs 20-40 mmHg) |  |  |
| CC1(c2noc(C3CC3)n2)C(=O)Nc2nc(-c3cn4ccnc4c(CCC(F)(F)C(F)(F)F)n3)nc(N)c21 (single isomer, unassigned) [Example 333B, 4-amino-5-(5-cyclopropyl-1,2,4-oxadiazol-3-yl)-5-methyl-2-(8-(3,3,4,4,4-pentafluorobutyl)imidazo[1,2-a]pyrazin-6-yl)-5H-pyrrolo[2,3-d]pyrimidin-6(7H)-one] | 81 | 84 |  |  |  |  | B (Category B=SBP in SHRs 20-40 mmHg) |
